The compounds below were run against human NaV 1.8 (Homo sapiens, UniProt Q9Y5Y9) (assay: E-VIPR assay for detecting and measuring NaV inhibition properties). Settings: E-VIPR assay conducted in the presence of human serum; HEK cells expressing truncated human NaV 1.8; read-out: IC50.
human NaV 1.8, sequence (Q9Y5Y9 whole entry, looked up, the tested form may be a part): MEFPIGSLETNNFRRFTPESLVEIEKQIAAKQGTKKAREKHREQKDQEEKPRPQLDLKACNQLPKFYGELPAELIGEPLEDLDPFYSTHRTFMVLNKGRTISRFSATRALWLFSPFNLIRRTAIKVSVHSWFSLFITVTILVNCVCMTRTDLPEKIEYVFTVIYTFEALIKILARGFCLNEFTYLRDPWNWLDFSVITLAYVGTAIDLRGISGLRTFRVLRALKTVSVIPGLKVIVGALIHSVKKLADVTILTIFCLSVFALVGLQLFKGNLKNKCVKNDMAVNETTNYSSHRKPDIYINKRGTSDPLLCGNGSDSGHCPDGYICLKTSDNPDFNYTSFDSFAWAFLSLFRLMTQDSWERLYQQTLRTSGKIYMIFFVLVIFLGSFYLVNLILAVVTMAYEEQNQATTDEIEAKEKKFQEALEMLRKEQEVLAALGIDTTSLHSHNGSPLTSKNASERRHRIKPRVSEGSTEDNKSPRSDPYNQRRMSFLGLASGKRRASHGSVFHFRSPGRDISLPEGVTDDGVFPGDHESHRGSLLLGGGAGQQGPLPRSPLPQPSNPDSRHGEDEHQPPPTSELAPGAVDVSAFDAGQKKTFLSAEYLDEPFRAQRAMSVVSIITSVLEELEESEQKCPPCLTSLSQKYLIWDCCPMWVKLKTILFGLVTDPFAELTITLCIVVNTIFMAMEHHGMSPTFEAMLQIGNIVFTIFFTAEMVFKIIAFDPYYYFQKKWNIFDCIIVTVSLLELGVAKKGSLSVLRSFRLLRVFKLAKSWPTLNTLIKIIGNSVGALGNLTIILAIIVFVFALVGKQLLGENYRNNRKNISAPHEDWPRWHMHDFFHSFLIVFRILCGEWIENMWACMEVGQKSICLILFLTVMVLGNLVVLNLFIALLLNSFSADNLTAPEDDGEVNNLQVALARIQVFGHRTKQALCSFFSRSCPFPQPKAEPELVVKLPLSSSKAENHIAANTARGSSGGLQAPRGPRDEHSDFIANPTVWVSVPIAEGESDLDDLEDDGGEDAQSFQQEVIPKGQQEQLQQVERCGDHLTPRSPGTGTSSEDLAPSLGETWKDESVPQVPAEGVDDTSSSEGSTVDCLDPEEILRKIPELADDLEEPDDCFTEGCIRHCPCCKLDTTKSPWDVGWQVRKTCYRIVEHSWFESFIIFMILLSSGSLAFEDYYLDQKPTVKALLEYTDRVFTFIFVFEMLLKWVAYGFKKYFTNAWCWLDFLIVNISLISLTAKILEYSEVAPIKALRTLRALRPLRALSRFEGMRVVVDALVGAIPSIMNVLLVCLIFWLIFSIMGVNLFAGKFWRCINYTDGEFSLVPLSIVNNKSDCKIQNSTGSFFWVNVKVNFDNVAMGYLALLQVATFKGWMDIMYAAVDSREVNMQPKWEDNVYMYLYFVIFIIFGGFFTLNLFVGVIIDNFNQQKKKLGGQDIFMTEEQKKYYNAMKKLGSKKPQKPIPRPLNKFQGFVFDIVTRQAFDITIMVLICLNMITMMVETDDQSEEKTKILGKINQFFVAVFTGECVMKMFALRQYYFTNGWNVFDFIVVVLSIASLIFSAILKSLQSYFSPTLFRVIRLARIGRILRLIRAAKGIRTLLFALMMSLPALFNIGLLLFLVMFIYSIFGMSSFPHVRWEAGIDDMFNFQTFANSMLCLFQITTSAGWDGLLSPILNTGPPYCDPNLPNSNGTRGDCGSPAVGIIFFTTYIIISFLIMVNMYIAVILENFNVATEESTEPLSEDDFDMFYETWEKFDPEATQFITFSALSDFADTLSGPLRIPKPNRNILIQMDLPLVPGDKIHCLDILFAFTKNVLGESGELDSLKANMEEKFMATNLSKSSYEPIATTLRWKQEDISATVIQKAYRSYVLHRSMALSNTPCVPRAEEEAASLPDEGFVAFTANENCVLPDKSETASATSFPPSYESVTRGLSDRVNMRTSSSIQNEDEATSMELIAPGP
Format: cell-based
Text: Sodium ion channels are voltage-dependent proteins that can be activated by inducing membrane voltage changes by applying electric fields. The electrical stimulation instrument and methods of use, referred to as E-VIPR, are described in International Publication No. WO 2002/008748 A3 and C.-J. Huang et al. Characterization of voltage-gated sodium channel blockers by electrical stimulation and fluorescence detection of membrane potential, 24 Nature Biotech. 439-46 (2006), both of which are incorporated by reference in their entirety. The instrument comprises a microtiter plate handler, an optical system for exciting the coumarin dye while simultaneously recording the coumarin and oxonol emissions, a waveform generator, a current- or voltage-controlled amplifier, and parallel electrode pairs that are inserted into assay plate wells. Under integrated computer control, this instrument passes user-programmed electrical stimulus protocols to cells within the wells of the microtiter plate.
16-20 hours prior to running the assay on E-VIPR, HEK cells expressing a truncated form of human NaV 1.8 with full channel activity were seeded into microtiter 384-well plates, pre-coated with matrigel, at a density of 25,000 cells per well. 2.5-5% KIR2.1 Bacmam virus was added to the final cell suspension before seeding into cell plates. HEK cells were grown in Dulbecco's Modified Eagle's Medium (DMEM) supplemented with 10% FBS (Fetal Bovine Serum, qualified; Sigma #F4135), 1% NEAA (Non-Essential Amino Acids, Gibco #11140), 1% HEPES (Gibco #15630), 1% Pen-Strep (Penicillin-Streptomycin; Gibco #15140) and 5 μg/ml Blasticidin (Gibco #R210-01). Cells were expanded in vented cap cell culture flasks, with 90-95% humidity and 5% CO2.
Compound Loading Buffer (2× concentration): Na/TMA Cl Bath1 Buffer containing HS (omitted in experiments run in the absence of human serum (HS)) 50%, VABSC-1 1 mM, BSA 0.2 mg/ml (in Bath-1), KCl 9 mM, DMSO 0.75%.
• 1) To reach the final concentration in each well, 400 nL of each compound was pre-spotted (in neat DMSO) into polypropylene compound plates at 250× desired final concentration from an intermediate stock concentration of 0.075 mM, in an 11 point dose response, 3-fold dilution, resulting in a top dose of 300 nM final concentration in the cell plate. Vehicle control (neat DMSO), and positive control (an established NaV1.8 inhibitor, 25 μM final in assay in DMSO) were added manually to the outermost columns of each plate respectively. The compound plate was backfilled with 45 μL per well of Compound Loading Buffer resulting in a 250 fold dilution of compound following a 1:1 transfer of compound into the cell plate (see Step 6). Final DMSO concentration for all wells in the assay was 0.625% (0.75% DMSO was supplemented to the Compound Loading Buffer for a final DMSO concentration of 0.625%). This assay dilution protocol was adjusted to enable a higher dose range to be tested in the presence of HS or if the final assay volume was altered. • 2) Hexyl Dye Solution was prepared. • 3) Cell plates were prepared. On the day of the assay, the media was aspirated, and the cells were washed three times with 80 μL of Bath-1 buffer, maintaining 25 μL residual volume in each well. • 4) 25 μL per well of Hexyl Dye Solution was dispensed into the cell plates. The cells were incubated for 20 minutes at room temperature or ambient conditions in darkness. • 5) 45 μL per well of Compound Loading Buffer was dispensed into compound plates. • 6) The cell plates were washed three times with 80 μL per well of Bath-1 Buffer, leaving 25 µL of residual volume. Then 25 μL per well from compound plate was transferred to each cell plate. The mixture was incubated for 30 minutes at room temperature/ambient conditions. • 7) The cell plate containing compound was read on E-VIPR using the current-controlled amplifier to deliver stimulation wave pulses using a symmetrical biphasic waveform. […]
`COc1cc(OC(F)(F)F)ccc1Oc1cc(C2CCC(OC)CC2)ccc1C(=O)Nc1ccnc(C(N)=O)c1` (single isomer, unassigned) [1032 (second diastereomer), 4-[[4-(4-methoxycyclohexyl)-2-[2-methoxy-4-(trifluoromethoxy)phenoxy]benzoyl]amino]pyridine-2-carboxamide] was tested, and the IC50 was 1550 nM. `COc1nc(Cl)ccc1Oc1ccc(C(F)(F)F)cc1C(=O)Nc1ccnc(C(N)=O)c1` [Compound 1, 4-[[2-[(6-Chloro-2-Methoxy-3-Pyridyl)Oxy]-5-(Trifluoromethyl)Benzoyl]Amino]Pyridine-2-Carboxamide] was tested, and the IC50 was 390 nM. `CC(C)Oc1ccc(Oc2ccc(C(F)(F)F)cc2C(=O)Nc2ccnc(C(N)=O)c2)cc1Cl` [Compound 2, 4-[[2-(3-chloro-4-isopropoxy-phenoxy)-5-(trifluoromethyl)benzoyl]amino]pyridine-2-carboxamide] was tested, and the IC50 was 450 nM. Compound `Cc1cc(Oc2ccc(C(F)(F)F)cc2C(=O)Nc2ccnc(C(N)=O)c2)ccc1F` [Compound 3, 4-[[2-(4-fluoro-3-methyl-phenoxy)-5-(trifluoromethyl)benzoyl]amino]pyridine-2-carboxamide] has an IC50 of 1400 nM. `Cc1cc(F)ccc1Oc1ccc(C(F)(F)F)cc1C(=O)Nc1ccnc(C(N)=O)c1` [Compound 4, 4-[[2-(4-fluoro-2-methyl-phenoxy)-5-(trifluoromethyl)benzoyl]amino]pyridine-2-carboxamide] was tested, and the IC50 was 650 nM. Compound `NC(=O)c1cc(NC(=O)c2cc(C(F)(F)F)ccc2Oc2ccc(F)cc2Cl)ccn1` [Compound 5, 4-[[2-(2-chloro-4-fluoro-phenoxy)-5-(trifluoromethyl)benzoyl]amino]pyridine-2-carboxamide] has an IC50 of 1200 nM. `NC(=O)c1cc(NC(=O)c2cc(C(F)(F)F)ccc2Oc2ccc(F)c(F)c2)ccn1` [Compound 6, 4-[[2-(3,4-difluorophenoxy)-5-(trifluoromethyl)benzoyl]amino]pyridine-2-carboxamide] showed an IC50 of 1700 nM. `CC(C)Oc1ccc(Oc2ccc(C(F)(F)F)cc2C(=O)Nc2ccnc(C(N)=O)c2)cc1F` [Compound 7, 4-[[2-(3-fluoro-4-isopropoxy-phenoxy)-5-(trifluoromethyl)benzoyl]amino]pyridine-2-carboxamide] showed an IC50 of 660 nM. For `COc1cc(F)ccc1Oc1ccc(C(F)(F)F)cc1C(=O)Nc1ccnc(C(N)=O)c1` [Compound 8, 4-[[2-(4-fluoro-2-methoxy-phenoxy)-5-(trifluoromethyl)benzoyl]amino]pyridine-2-carboxamide], the IC50 was 510 nM. `CC(C)Oc1ccc(Oc2ccc(C(F)(F)F)cc2C(=O)Nc2ccnc(C(N)=O)c2)cc1` [Compound 9, 4-[[2-(4-isopropoxyphenoxy)-5-(trifluoromethyl)benzoyl]amino]pyridine-2-carboxamide] was tested, and the IC50 was 1300 nM. Compound `NC(=O)c1cc(NC(=O)c2cc(C(F)(F)F)ccc2Oc2ccc(F)c3c2OCC3)ccn1` [Compound 10, 4-[[2-[(4-fluoro-2,3-dihydrobenzofuran-7-yl)oxy]-5-(trifluoromethyl)benzoyl]amino]pyridine-2-carboxamide] has an IC50 of 650 nM. Compound `NC(=O)c1cc(NC(=O)c2cc(C(F)(F)F)ccc2Oc2ccc(F)c(Cl)c2)ccn1` [Compound 11, 4-[[2-(3-chloro-4-fluoro-phenoxy)-5-(trifluoromethyl)benzoyl]amino]pyridine-2-carboxamide] has an IC50 of 1400 nM. Work on `COc1c(F)cccc1Oc1ccc(C(F)(F)F)cc1C(=O)Nc1ccnc(C(N)=O)c1` [Compound 12, 4-[[2-(3-fluoro-2-methoxy-phenoxy)-5-(trifluoromethyl)benzoyl]amino]pyridine-2-carboxamide] yielded an IC50 of 2100 nM. In the case of `NC(=O)c1cc(NC(=O)c2cc(C(F)(F)F)ccc2Oc2ccc(OC3CCCCC3)cc2)ccn1` [Compound 13, 4-[[2-[4-(cyclohexoxy)phenoxy]-5-(trifluoromethyl)benzoyl]amino]pyridine-2-carboxamide], the IC50 is reported as > 3000 nM. In the case of `NC(=O)c1cc(NC(=O)c2cc(C(F)(F)F)ccc2Oc2cccc(C3CCCCC3)c2)ccn1` [Compound 14, 4-[[2-(3-cyclohexylphenoxy)-5-(trifluoromethyl)benzoyl]amino]pyridine-2-carboxamide], the IC50 is reported as > 3000 nM. `COc1ccc(Cl)cc1Oc1ccc(C(F)(F)F)cc1C(=O)Nc1ccnc(C(N)=O)c1` [Compound 15, 4-[[2-(5-chloro-2-methoxy-phenoxy)-5-(trifluoromethyl)benzoyl]amino]pyridine-2-carboxamide] was tested, and the IC50 was > 3000 nM. With `COc1cc(Oc2ccc(C(F)(F)F)cc2C(=O)Nc2ccnc(C(N)=O)c2)ccc1F` [Compound 16, 4-[[2-(4-fluoro-3-methoxy-phenoxy)-5-(trifluoromethyl)benzoyl]amino]pyridine-2-carboxamide] the IC50 was > 3000 nM. For `NC(=O)c1cc(NC(=O)c2cc(C(F)(F)F)ccc2Oc2ccc(F)cc2F)ccn1` [Compound 17, 4-[[2-(2,4-difluorophenoxy)-5-(trifluoromethyl)benzoyl]amino]pyridine-2-carboxamide], the IC50 was > 3000 nM. `CC(C)Oc1ccc(Oc2ccc(C(F)(F)F)c(F)c2C(=O)Nc2ccnc(C(N)=O)c2)c(F)c1F` [Compound 18, 4-[[6-(2,3-difluoro-4-isopropoxy-phenoxy)-2-fluoro-3-(trifluoromethyl)benzoyl]amino]pyridine-2-carboxamide] was tested, and the IC50 was 19 nM. With `CCOc1ccc(Oc2ccc(C(F)(F)F)c(F)c2C(=O)Nc2ccnc(C(N)=O)c2)c(F)c1F` [Compound 19, 4-[[6-(4-ethoxy-2,3-difluoro-phenoxy)-2-fluoro-3-(trifluoromethyl)benzoyl]amino]pyridine-2-carboxamide] the IC50 was 57 nM. `NC(=O)c1cc(NC(=O)c2c(Oc3ccc(F)cc3Cl)ccc(C(F)(F)F)c2F)ccn1` [Compound 20, 4-[[6-(2-chloro-4-fluoro-phenoxy)-2-fluoro-3-(trifluoromethyl)benzoyl]amino]pyridine-2-carboxamide] was tested, and the IC50 was 48 nM. With `COc1cc(Oc2ccc(C(F)(F)F)c(F)c2C(=O)Nc2ccnc(C(N)=O)c2)ccc1F` [Compound 21, 4-[[2-fluoro-6-(4-fluoro-3-methoxy-phenoxy)-3-(trifluoromethyl)benzoyl]amino]pyridine-2-carboxamide] the IC50 was 1000 nM. For `NC(=O)c1cc(NC(=O)c2c(Oc3ccccc3)ccc(C(F)(F)F)c2F)ccn1` [Compound 22, 4-[[2-fluoro-6-phenoxy-3-(trifluoromethyl)benzoyl]amino]pyridine-2-carboxamide], the IC50 was 540 nM. `CCOc1ccc(Oc2ccc(C(F)(F)F)c(F)c2C(=O)Nc2ccnc(C(N)=O)c2)cc1` [Compound 23, 4-[[6-(4-ethoxyphenoxy)-2-fluoro-3-(trifluoromethyl)benzoyl]amino]pyridine-2-carboxamide] was tested, and the IC50 was 150 nM. For `NC(=O)c1cc(NC(=O)c2c(Oc3ccc(F)c(F)c3)ccc(C(F)(F)F)c2F)ccn1` [Compound 24, 4-[[6-(3,4-difluorophenoxy)-2-fluoro-3-(trifluoromethyl)benzoyl]amino]pyridine-2-carboxamide], the IC50 was 200 nM. Compound `NC(=O)c1cc(NC(=O)c2c(Oc3ccc(F)c(Cl)c3)ccc(C(F)(F)F)c2F)ccn1` [Compound 25, 4-[[6-(3-chloro-4-fluoro-phenoxy)-2-fluoro-3-(trifluoromethyl)benzoyl]amino]pyridine-2-carboxamide] has an IC50 of 160 nM. Work on `Cc1nc(C(F)(F)F)ccc1Oc1ccc(C(F)(F)F)c(F)c1C(=O)Nc1ccnc(C(N)=O)c1` [Compound 26, 4-[[2-fluoro-6-[[2-methyl-6-(trifluoromethyl)-3-pyridyl]oxy]-3-(trifluoromethyl)benzoyl]amino]pyridine-2-carboxamide] yielded an IC50 of 1300 nM.
